The text below walks through data of US20260191783A1, “DRUG DELIVERY FORMULATIONS” (The Regents of the University of California, priority 2018, published 2026).

The format of series [1] is physicochemical. As for the experimental part: Oxidized porous silicon microparticles were prepared using a similar method to those used for segesterone acetate melt casting described elsewhere (75% porosity, 800° C. oxidation). […] Once molten, the LNG-CHOL mixture was left to infiltrate the porous silica materials for 5 minutes before cooling to room temperature. The oxidized porous silicon material containing LNG-CHOL was then recovered and ground into microparticles using a mortar and pestle. The loaded oxidized porous silicon particles were then evaluated for their release kinetics in 1×PBS (pH 7.4) at 37° C. Approximately 2 mg of LNG-PSi were placed in a glass vial containing 3.5 mL of 1×PBS and placed in a 37° C. incubator on a moving platform to induce mild agitation of the solution. 3 mL of the PBS was removed every 24 hours and replaced with fresh solution. The extracted supernatant was then analyzed for LNG content by high performance liquid chromatography (HPLC).

Series [2] in a line: In vitro dissolution / segesterone acetate release in 1x PBS. Format: physicochemical. The conditions noted are these: 1x PBS pH 7.4, 37° C., mild agitation, starting SEG 0.4 mg/mL. Here is the method:
Modulation of Segesterone Acetate Release Profile. Three main particle parameters were investigated as to their effect on the release of loaded SEG: particle oxidation temperature, drug loading, and particle porosity. Unless otherwise mentioned, the baseline particle formulation used was 55% porosity, oxidized at 800° C. and had segesterone acetate loading of 70% weight/weight. Drug release was modeled by in vitro dissolution in 1× phosphate buffered saline (pH 7.4) under mild agitation at 37° C. For all studies, starting segesterone acetate concentration was kept constant at 0.4 mg/mL based on the percent loading of the given formulation. […] Segesterone acetate concentrations were evaluated by HPLC with absorbance measurements at 254 nm.

The target of a further series is T1, estrogen receptor (Homo sapiens, UniProt P03372).
T1 sequence (P03372 1-595): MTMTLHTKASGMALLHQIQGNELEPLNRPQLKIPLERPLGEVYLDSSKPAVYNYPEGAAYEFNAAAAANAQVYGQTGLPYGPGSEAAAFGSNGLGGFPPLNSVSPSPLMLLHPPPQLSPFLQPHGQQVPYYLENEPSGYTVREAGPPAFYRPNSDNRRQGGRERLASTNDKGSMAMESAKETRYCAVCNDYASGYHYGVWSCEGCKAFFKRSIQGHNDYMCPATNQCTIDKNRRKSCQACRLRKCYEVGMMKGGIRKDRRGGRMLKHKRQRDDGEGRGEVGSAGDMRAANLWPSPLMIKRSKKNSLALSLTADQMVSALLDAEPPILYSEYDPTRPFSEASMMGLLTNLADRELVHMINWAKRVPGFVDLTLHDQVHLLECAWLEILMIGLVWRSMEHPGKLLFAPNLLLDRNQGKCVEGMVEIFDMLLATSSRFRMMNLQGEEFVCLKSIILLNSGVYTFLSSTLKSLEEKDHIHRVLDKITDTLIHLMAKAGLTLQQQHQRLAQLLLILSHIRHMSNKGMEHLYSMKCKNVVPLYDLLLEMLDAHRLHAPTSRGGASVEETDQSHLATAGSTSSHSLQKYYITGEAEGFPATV
The conditions noted are these: cited from earlier work.

In a further series the target is T2, androgen receptor (Homo sapiens, UniProt P10275).
T2 sequence (P10275 1-920): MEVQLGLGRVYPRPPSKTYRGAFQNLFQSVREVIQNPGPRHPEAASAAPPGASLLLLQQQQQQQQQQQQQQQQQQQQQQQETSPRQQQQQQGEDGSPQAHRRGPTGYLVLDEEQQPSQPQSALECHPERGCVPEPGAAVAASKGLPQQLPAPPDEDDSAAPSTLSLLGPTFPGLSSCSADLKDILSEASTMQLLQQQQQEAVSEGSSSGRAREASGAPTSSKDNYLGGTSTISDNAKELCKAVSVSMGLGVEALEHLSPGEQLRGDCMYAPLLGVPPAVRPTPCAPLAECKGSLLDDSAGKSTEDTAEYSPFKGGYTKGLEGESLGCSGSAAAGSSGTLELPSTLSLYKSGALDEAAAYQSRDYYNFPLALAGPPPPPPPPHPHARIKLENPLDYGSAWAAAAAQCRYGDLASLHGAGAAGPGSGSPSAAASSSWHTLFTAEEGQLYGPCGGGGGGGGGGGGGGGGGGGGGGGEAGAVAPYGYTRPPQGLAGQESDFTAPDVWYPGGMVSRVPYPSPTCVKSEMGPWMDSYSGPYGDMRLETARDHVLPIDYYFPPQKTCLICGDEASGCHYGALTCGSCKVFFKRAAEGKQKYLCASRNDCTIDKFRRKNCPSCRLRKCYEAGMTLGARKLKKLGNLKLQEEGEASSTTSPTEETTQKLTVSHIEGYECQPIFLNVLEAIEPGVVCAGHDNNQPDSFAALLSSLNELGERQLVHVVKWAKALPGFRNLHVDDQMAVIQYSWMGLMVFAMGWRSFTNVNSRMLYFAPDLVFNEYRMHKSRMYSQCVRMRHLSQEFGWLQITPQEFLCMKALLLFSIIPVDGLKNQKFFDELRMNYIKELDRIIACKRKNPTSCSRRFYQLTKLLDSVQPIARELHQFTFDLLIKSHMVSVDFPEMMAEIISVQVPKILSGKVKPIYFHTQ
The conditions noted are these: cited from earlier work.

Series [3] in a line: Serum segesterone acetate by HPLC-MS/MS after subcutaneous injection. The conditions noted are these: rat, 50 mg/kg SEG.
Method: In Vivo Performance. In vivo studies were performed in female adult Sprague-Dawley rats, weighing approximately 300 g each. […] Animals received a subcutaneous injection in the scruff of the neck containing 50 mg/kg SEG.
For longer term studies, five experimental groups (n=5 animals each) were studied: empty porous silica particles, pure non-micronized SEG, medium porosity 70 wt % segesterone acetate loaded particles and two groups of two different batches of high porosity 70 wt % segesterone acetate loaded particles. The five groups were monitored for 6 months with body weight measurements and tail-vein blood draws taken weekly.
Serum samples were processed and submitted to a third-party lab for segesterone acetate detection via HPLC-MS/MS.

Turning to `C#C[C@]1(OC(=O)CCC)CC[C@H]2[C@@H]3CCC4=CC(=O)CC[C@@H]4[C@H]3CC[C@@]21CC` [Levonorgestrel Butanoate], the Tdegradeable (STA under nitrogen flow) is 230 °C. Under “difference between melting and degradation temperatures, STA under nitrogen flow”, the “Window [Tdegradeable − Tmelt]” value was 26 °C.
Regarding `C#C[C@]1(O)CC[C@H]2[C@@H]3CCC4=CC(=O)CC[C@@H]4[C@H]3CC[C@@]21CC` [Levonorgestrel], the “chemical alteration or degradation by the melt casting process” value in series [1] is given as “not chemically altered or degraded”. Besides, the “temperature at which the drug began to lose mass” value (oxygen atmosphere, heating rate 10° C.) was “approximately 233 °C”.
Consider `C=C1C[C@H]2[C@@H]3CCC4=CC(=O)CC[C@@H]4[C@H]3CC[C@]2(C)[C@@]1(OC(C)=O)C(C)=O` [segesterone acetate], for which the “duration of segesterone acetate release / time to full clearance from the test chamber” value in series [2] (listed as crystalline segesterone acetate controls) is 40 days; in series [2] (listed as pure segesterone acetate) it was 35 to 40 days. Besides, on estrogen receptor, the “binding to the estrogen receptor” value is reported as “does not significantly bind”. Further, the “binding to the androgen receptor” value at androgen receptor is “does not significantly bind”. The “segesterone acetate detection in serum at terminal 6-month timepoint” value in series [3] is recorded as “still detected”.
